Each block holds one compound with its values, some of them ahead of it. Calls of active or inactive are those of the source. No cut-off for these calls is given here.
Experiments:
Rattus norvegicus [1] = organism: Rattus norvegicus; experiment: (§1) In vitro dose stimulating D-1 adenylate cyclase in rat caudate nuclei; No significant activity at 10 uM; type: functional
Rattus norvegicus [2] = organism: Rattus norvegicus; experiment: In vitro inhibition of dopamine stimulated production of [14C]cAMP from [14C]-ATP in homogenates of rat caudate; No significant activity at 10 uM; type: functional
Rattus norvegicus [3] = organism: Rattus norvegicus; experiment: In vitro inhibition of dopamine stimulated production of [14C]-cAMP from [14C]-ATP in homogenates of rat caudate; type: functional
Rattus norvegicus [4] = experiment: Compound was tested for its CNS activity in vivo in SNx rats with 6-hydroxydopamine induced lesions after ip administration; type: functional, Central nervous system
Canis familiaris [5] = experiment: Renal vasodilator activity in anesthetized dogs; no significant activity at 1000 ug/kg/stat; type: functional, organism-based; conditions: Canis lupus familiaris
Rattus norvegicus [6] = experiment: Compound was tested for its CNS activity in vivo in SNx rats with 6-hydroxydopamine induced lesions after ic administration; type: functional, Central nervous system
Rattus norvegicus [7] = organism: Rattus norvegicus; experiment: In vitro dose stimulating D-1 adenylate cyclase in rat caudate nuclei at 10 uM; type: functional
Rattus norvegicus [8] = organism: Rattus norvegicus; experiment: In vitro inhibition of dopamine stimulated production of [14C]cAMP from [14C]-ATP in homogenates of rat caudate at the concentration of 1 uM; type: functional
Canis familiaris [9] = experiment: Cardiovascular activity was determined in anesthetized dogs.(Heart rate ); type: functional; conditions: Canis lupus familiaris
Canis familiaris [10] = experiment: Renal vasodilator activity was determined in anesthetized dogs; type: functional; conditions: Canis lupus familiaris
Rattus norvegicus [11] = organism: Rattus norvegicus; experiment: In vitro dose stimulating D-1 adenylate cyclase in rat caudate nuclei; type: functional, organism-based
Canis familiaris [12] = organism: Canis familiaris; experiment: Maximum percent decrease in renal vascular resistance.; type: functional, Canis lupus familiaris
Canis familiaris [13] = experiment: Cardiovascular activity was determined in anesthetized dogs.(Mean arterial blood pressure); type: functional; conditions: Canis lupus familiaris, Artery
Canis familiaris [14] = organism: Canis familiaris; experiment: Effective dose against Iliac vascular resistance (IVR); type: functional; conditions: Canis lupus familiaris
Rattus norvegicus [15] = organism: Rattus norvegicus; experiment: In vitro inhibition of dopamine stimulated production of [14C]cAMP from [14C]-ATP in homogenates of rat caudate at the concentration of 10 uM; type: functional
Rattus norvegicus [16] = organism: Rattus norvegicus; experiment: as §1; type: functional; remark: listed apart in the source
Canis familiaris [17] = experiment: cardiovascular activity was determined in anesthetized dogs.(Heart rate ); type: functional; conditions: Canis lupus familiaris
Canis familiaris [18] = experiment: Renal vasodilator activity in anesthetized dogs; I= no significant activity at 300 ug/kg/min; type: functional, organism-based; conditions: Canis lupus familiaris
Canis familiaris [19] = experiment: cardiovascular activity was determined in anesthetized dogs.(Mean arterial blood pressure); type: functional; conditions: Canis lupus familiaris
Rattus norvegicus [20] = experiment: Compound was tested for its CNS activity in vivo by determining drug-induced rotation in rats with 6-hydroxydopamine induced lesions of the SNx rats after ip administration measured as dose-turns; 10-no significant activity; type: functional, organism-based; conditions: Central nervous system
Rattus norvegicus [21] = experiment: Compound was tested for its CNS activity in vivo in SNx rats with 6-hydroxydopamine induced lesions after ip administration measured as dose-turns; 10-No significant activity; type: functional, organism-based; conditions: Central nervous system
Rattus norvegicus [22] = organism: Rattus norvegicus; experiment: In vitro dose stimulating D-1 adenylate cyclase in rat caudate nuclei as % dopamine response at 10 uM; type: functional

Stimulation (Rattus norvegicus [1]): inactive
Structure (SMILES): Cc1c(O)c(O)c(Cl)c2c1C(c1ccc(O)cc1)CNCC2 (stereo unspecified)
inhibition (Rattus norvegicus [2]): inactive

IC50 (Rattus norvegicus [3]): 630 nM
Structure (SMILES): CN1CCc2cc(O)c(O)cc2C(c2ccccc2)C1.Cl (stereo unspecified)
RD500 (Rattus norvegicus [4]): 0.1 mg/kg | Activity (Canis familiaris [5]): inactive | RD500 (Rattus norvegicus [6]): 0.06 ug rat-1 | Stimulation (Rattus norvegicus [7]): 20%

IC50 (Rattus norvegicus [3]): 320 nM
Structure (SMILES): Br.CN1CCc2c(cc(O)c(O)c2Br)C(c2ccccc2)C1 (stereo unspecified)
RD500 (Rattus norvegicus [4]): 0.015 mg/kg | Stimulation (Rattus norvegicus [7]): 30%

IC50 (Rattus norvegicus [3]): 600 nM
Structure (SMILES): CN1CCc2c(cc(O)c(O)c2Cl)C(c2ccccc2)C1.Cl (stereo unspecified)
RD500 (Rattus norvegicus [4]): 0.03 mg/kg | Stimulation (Rattus norvegicus [7]): 30%

EC50 (Rattus norvegicus [11]): 40 nM
Structure (SMILES): Br.Oc1cc2c(c(F)c1O)CCNCC2c1ccccc1 (stereo unspecified)
inhibition (Rattus norvegicus [8]): 31% | ED20 (Canis familiaris [9]): 54 mg/kg | ED15 (Canis familiaris [10]): 0.009 mg/kg | Decrease (Canis familiaris [12]): 36% | ED20 (Canis familiaris [13]): 54 mg/kg | ED30 (Canis familiaris [14]): 54 mg/kg | inhibition (Rattus norvegicus [15]): 17%

EC50 (Rattus norvegicus [16]): Not Active
Structure (SMILES): Br.Cc1c(O)c(O)cc2c1C(c1ccc(O)cc1)CNCC2 (stereo unspecified)
inhibition (Rattus norvegicus [2]): inactive

Structure (SMILES): NCCc1ccc(O)c(O)c1 [DOPAMINE]
ED20 (Canis familiaris [17]): 0.378 mg/kg | ED15 (Canis familiaris [10]): 0.0035 mg/kg | RD500 (Rattus norvegicus [6]): 0.1 ug rat-1 | Decrease (Canis familiaris [12]): 43% | ED20 (Canis familiaris [13]): 0.378 mg/kg | ED30 (Canis familiaris [14]): 0.151 mg/kg

EC50 (Rattus norvegicus [16]): Not Active
Structure (SMILES): Br.Oc1ccc(C2CNCCc3c(F)c(O)c(O)c(F)c32)cc1 (stereo unspecified)
inhibition (Rattus norvegicus [2]): inactive

IC50 (Rattus norvegicus [3]): 440 nM
Structure (SMILES): Br.Cc1c(O)c(O)cc2c1CCN(C)CC2c1ccccc1 (stereo unspecified)
RD500 (Rattus norvegicus [4]): 0.05 mg/kg | Stimulation (Rattus norvegicus [7]): 20% | Activity (Canis familiaris [18]): inactive

Structure (SMILES): Oc1cc2c(cc1O)C(c1ccccc1)CNCC2 (stereo unspecified) [SKF-38393]
ED20 (Canis familiaris [17]): 1.05 mg/kg | RD500 (Rattus norvegicus [4]): 0.7 mg/kg | ED15 (Canis familiaris [10]): 0.035 mg/kg | RD500 (Rattus norvegicus [6]): 0.18 ug rat-1 | ED20 (Canis familiaris [19]): 1.72 mg/kg | Decrease (Canis familiaris [12]): 18% | ED30 (Canis familiaris [14]): 0.735 mg/kg

Structure (SMILES): CS(=O)(=O)O.Cc1c(O)c(O)cc2c1CCNCC2c1ccc(O)cc1 (stereo unspecified)
ED20 (Canis familiaris [17]): 6.06 mg/kg | ED15 (Canis familiaris [10]): 0.0028 mg/kg | ED20 (Canis familiaris [19]): 6.06 mg/kg | Stimulation (Rattus norvegicus [7]): 30% | Decrease (Canis familiaris [12]): 41% | ED30 (Canis familiaris [14]): 6.06 mg/kg | inhibition (Rattus norvegicus [15]): 50%

IC50 (Rattus norvegicus [3]): 1400 nM | EC50 (Rattus norvegicus [11]): 22000 nM
Structure (SMILES): CN1CCc2c(cc(O)c(O)c2Cl)C(c2ccc(O)cc2)C1 (stereo unspecified)

Structure (SMILES): Br.Oc1cccc(C2CNCCc3c2cc(O)c(O)c3Cl)c1 (stereo unspecified)
ED20 (Canis familiaris [17]): 0.36 mg/kg | ED15 (Canis familiaris [10]): 0.00035 mg/kg | ED20 (Canis familiaris [19]): 2.12 mg/kg | RD500 (Rattus norvegicus [20]): inactive | Decrease (Canis familiaris [12]): 49% | ED30 (Canis familiaris [14]): 0.0119 mg/kg

EC50 (Rattus norvegicus [11]): 200 nM
Structure (SMILES): Br.Oc1ccc(C2CNCCc3c2cc(O)c(O)c3F)cc1 (stereo unspecified)
ED20 (Canis familiaris [17]): 0.00581 mg/kg | ED15 (Canis familiaris [10]): 0.00083 mg/kg | ED20 (Canis familiaris [19]): 6.06 mg/kg | Decrease (Canis familiaris [12]): 28% | ED30 (Canis familiaris [14]): 6.06 mg/kg

EC50 (Rattus norvegicus [11]): 2600 nM
Structure (SMILES): Cl.Oc1ccc(C2CNCCc3c(Cl)c(O)c(O)c(Cl)c32)cc1 (stereo unspecified)
ED20 (Canis familiaris [17]): 6.2 mg/kg | ED15 (Canis familiaris [10]): 0.62 mg/kg | ED20 (Canis familiaris [19]): 6.2 mg/kg | RD500 (Rattus norvegicus [20]): inactive | Decrease (Canis familiaris [12]): 41% | ED30 (Canis familiaris [14]): 6.2 mg/kg

Structure (SMILES): Oc1ccc(C2CNCCc3c2cc(O)c(O)c3C(F)(F)F)cc1 (stereo unspecified)
RD500 (Rattus norvegicus [20]): inactive

EC50 (Rattus norvegicus [11]): 200 nM
Structure (SMILES): Oc1ccc(C2CNCCc3cc(O)c(O)cc32)cc1 (stereo unspecified)
RD500 (Rattus norvegicus [21]): inactive

EC50 (Rattus norvegicus [11]): 1250 nM
Structure (SMILES): Cl.Oc1c(O)c(Cl)c2c(c1Cl)CCNCC2c1ccccc1 (stereo unspecified)
ED20 (Canis familiaris [17]): 6.08 mg/kg | ED15 (Canis familiaris [10]): 0.01 mg/kg | ED20 (Canis familiaris [19]): 6.08 mg/kg | Decrease (Canis familiaris [12]): 59% | inhibition (Rattus norvegicus [2]): inactive | ED30 (Canis familiaris [14]): 6.08 mg/kg

Structure (SMILES): Br.Oc1cc2c(c(Cl)c1O)CCNCC2c1ccccc1 (stereo unspecified)
ED20 (Canis familiaris [17]): 0.378 mg/kg | RD500 (Rattus norvegicus [4]): 0.3 mg/kg | ED15 (Canis familiaris [10]): 0.0035 mg/kg | RD500 (Rattus norvegicus [6]): 0.22 ug rat-1 | ED20 (Canis familiaris [19]): 6.07 mg/kg | Decrease (Canis familiaris [12]): 39% | ED30 (Canis familiaris [14]): 2.92 mg/kg

EC50 (Rattus norvegicus [11]): 100 nM
Structure (SMILES): Br.Cc1c(O)c(O)cc2c1CCNCC2c1ccccc1 (stereo unspecified)
RD500 (Rattus norvegicus [4]): 1.28 mg/kg

EC50 (Rattus norvegicus [16]): Not Active
Structure (SMILES): Br.Oc1ccc(C2CNCCc3cc(O)c(O)c(Cl)c32)cc1 (stereo unspecified)
inhibition (Rattus norvegicus [2]): inactive

EC50 (Rattus norvegicus [11]): 100 nM
Structure (SMILES): Br.Oc1cc2c(c(Br)c1O)CCNCC2c1ccccc1 (stereo unspecified)
ED20 (Canis familiaris [17]): 6.08 mg/kg | RD500 (Rattus norvegicus [4]): 0.34 mg/kg | ED15 (Canis familiaris [10]): 0.009 mg/kg | ED20 (Canis familiaris [19]): 6.08 mg/kg | Decrease (Canis familiaris [12]): 42% | ED30 (Canis familiaris [14]): 6.08 mg/kg

Stimulation (Rattus norvegicus [1]): inactive
Structure (SMILES): Cc1c(O)c(O)c(C)c2c1CCNCC2c1ccc(O)cc1 (stereo unspecified)
inhibition (Rattus norvegicus [2]): inactive

Stimulation (Rattus norvegicus [1]): inactive
Structure (SMILES): Cc1c(O)c(O)c(Cl)c2c1CCNCC2c1ccc(O)cc1.Cl (stereo unspecified)
ED20 (Canis familiaris [17]): 6.09 mg/kg | ED15 (Canis familiaris [10]): 0.03 mg/kg | ED20 (Canis familiaris [19]): 6.09 mg/kg | Decrease (Canis familiaris [12]): 42% | ED30 (Canis familiaris [14]): 6.09 mg/kg | inhibition (Rattus norvegicus [15]): 29%

Structure (SMILES): Br.Oc1ccc(C2CNCCc3c2cc(O)c(O)c3I)cc1 (stereo unspecified)
ED20 (Canis familiaris [17]): 6.06 mg/kg | ED15 (Canis familiaris [10]): 0.0042 mg/kg | ED20 (Canis familiaris [19]): 6.06 mg/kg | Stimulation (Rattus norvegicus [22]): 36% | Decrease (Canis familiaris [12]): 41% | ED30 (Canis familiaris [14]): 6.06 mg/kg | inhibition (Rattus norvegicus [15]): 55%

EC50 (Rattus norvegicus [11]): 48 nM
Structure (SMILES): CS(=O)(=O)O.Oc1ccc(C2CNCCc3c2cc(O)c(O)c3Cl)cc1 (stereo unspecified) [FENOLDOPAM MESYLATE]
ED20 (Canis familiaris [17]): 1.82 mg/kg | RD500 (Rattus norvegicus [4]): 0.5 ug rat-1 | ED15 (Canis familiaris [10]): 0.0003 mg/kg | ED20 (Canis familiaris [19]): 1.82 mg/kg | RD500 (Rattus norvegicus [20]): inactive | Decrease (Canis familiaris [12]): 59% | ED30 (Canis familiaris [14]): 1.82 mg/kg

Structure (SMILES): Br.CN1CCc2c(cc(O)c(O)c2F)C(c2ccc(O)cc2)C1 (stereo unspecified)
Stimulation (Rattus norvegicus [7]): 36% | inhibition (Rattus norvegicus [15]): 55%

EC50 (Rattus norvegicus [11]): 150 nM
Structure (SMILES): Br.Oc1ccc(C2CNCCc3c2cc(O)c(O)c3Br)cc1 (stereo unspecified)
ED20 (Canis familiaris [17]): 30.4 mg/kg | ED15 (Canis familiaris [10]): 0.005 mg/kg | ED20 (Canis familiaris [19]): 30.4 mg/kg | RD500 (Rattus norvegicus [20]): inactive | Decrease (Canis familiaris [12]): 56% | ED30 (Canis familiaris [14]): 0.07 mg/kg
